Assays:
Format in all cases: cell-based
CXCR3-PK1 = target: T1, CXCR3-PK1 (Homo sapiens, UniProt P49682); assay: β-arrestin 2 recruitment assay (PathHunter, DiscoveRx), CXCR3-PK1 construct; conditions: for CXCR3-PK1 pEC50 ± SEM: HEK293-T cells, PathHunter, two to three experiments in triplicate
T1 construct: expressed in transfected cells; host or cells: HEK293 cells stably expressing beta-gal enzyme acceptor (PathHunter, DiscoveRx), transiently transfected
T1 sequence (P49682 1-368): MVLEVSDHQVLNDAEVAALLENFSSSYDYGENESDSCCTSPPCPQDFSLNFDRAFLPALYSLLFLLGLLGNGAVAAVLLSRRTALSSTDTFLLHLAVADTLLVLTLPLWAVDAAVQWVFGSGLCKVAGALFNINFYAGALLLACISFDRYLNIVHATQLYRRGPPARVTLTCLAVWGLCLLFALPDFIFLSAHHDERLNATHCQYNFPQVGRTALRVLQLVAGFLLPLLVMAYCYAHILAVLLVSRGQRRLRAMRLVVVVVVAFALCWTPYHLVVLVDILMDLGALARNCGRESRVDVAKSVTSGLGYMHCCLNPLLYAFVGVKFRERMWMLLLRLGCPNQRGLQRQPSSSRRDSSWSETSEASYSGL
How it was run: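 HEK293 cells stably expressing β-gal enzyme acceptor, transiently transfected with PK1-tagged wild-type CXCR3, seeded overnight at 37°C. Test compounds or CXCL11 at various concentrations in PBS pH 7.4 with 0.20% BSA, 4 h; detection mix 60 min at room temperature. β-gal fragment complementation read by chemiluminescence.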

CXCR3-PK2 = target: T2, CXCR3-PK2 (Homo sapiens, UniProt P49682); assay: β-arrestin 2 recruitment assay (PathHunter, DiscoveRx), CXCR3-PK2 construct; conditions: CXCR3-PK2; for CXCR3-PK2 pEC50 ± SEM: HEK293-T cells, PathHunter
T2 construct: expressed in transfected cells
T2 sequence (P49682 1-368): T1 sequence (P49682 1-368)
Procedure: (§1) β-arrestin 2 recruitment assay: The measurement of β-arrestin recruitment was performed utilizing the PathHunter assay purchased from DiscoveRx (DiscoveRx, Birmingham, U.K.) according to the manufacturer's protocol. HEK293 cells stably expressing β-gal enzyme acceptor were transiently transfected with the ProLink (PK1) tagged wildtype CXCR3 receptor using the TransIT-293 transfection reagent from Mirus (purchased from MoBiTec, Goettingen, Germany). The assay was carried out in 384-well plates containing 2000 cells in 20 µL. After incubation at 37°C (5% CO2, 95% relative humidity) overnight, various concentrations of test compounds or CXCL11 (prepared in PBS, pH 7.4, containing 0.20% BSA) were added and the incubation continued for 4 h. Detection mix was then added and incubated for further 60 min at room temperature. Chemiluminescence was determined with a microplate reader Clariostar (BMG labtech, Ortenberg, Germany).
The ability of the novel ligands according to the present invention to induce CXCR3-mediated β-arrestin 2 recruitment was investigated in the assay system PathHunter (DiscoveRx), which detects the recruitment of β-amestin 2 to the activated receptor using β-galactosidase (β-gal) enzyme fragment complementation. The inventors used two different ProLink tags, ProLink1 (PK1) and ProLink2 (PK2), of which PK2 has higher affinity for the enzyme acceptor to detect weak protein-protein interactions. The CXCR3-PK2 construct is readily able to detect the differences in the propensity of CXCL11 and CXCL10 to induce β-arrestin 2 recruitment at CXCR3. […] Table 3. Ability of the 46/VUF10661 based positive allosteric modulators to activate the CXCR3 as measured in the β-arrestin 2 recruitment assay (PathHunter, DiscoveRx).[a]
To investigate the efficacy of identified partial agonists in the assay format, the inventors used the CXCR3-PK2 construct, which is characterized by higher sensitivity to detect β-arrestin 2 recruitment. The compounds which appeared as weak partial agonists under CXCR3-PK1 conditions appeared as strong partial agonists under CXCR3-PK2 conditions with the efficacy increased up to 80% (Table 4). FAUC1036 reached the efficacy of 66%. […] Table 4. Ability of the compound 5 based positive allosteric modulators to activate the CXCR3 as measured in the β-arrestin 2 recruitment assay (PathHunter, DiscoveRx).[a]

FLAG-CXCR3 = target: T3, FLAG-CXCR3 (Homo sapiens, UniProt P49682); assay: ELISA based internalization assay; conditions: CXCL11 100 nM, modulators 10 µM, 1h at 37°C; Figure 4B
T3 construct: expressed in transfected cells; host or cells: HEK293T cells, transient
T3 sequence (P49682 1-368): T1 sequence (P49682 1-368)
Procedure: Enzyme-linked immunosorbent assay based internalization assay. The day after transfection with FLAG-CXCR3, cells were trypsinized, resuspended into fresh culture medium and plated in poly(D-lysine)-coated 48-well assay plates. 48h after transfection the medium was replaced by fresh DMEM w/o serum containing one concentration of the endogenous ligand CXCL11 (100 nM) or the positive allosteric modulators (10 µM) and incubated for 1h at 37°C. The cells were fixed with 4% formaldehyde solution and stained with monoclonal Anti-Flag antibody (Sigma-Aldrich Life Science, St. Louis, MO) and subsequently with Anti-Mouse IgG-Peroxidase Antibody produced in rabbit. […] The reaction was stopped with 1M H2SO4 and the resulting color was detected at 492 nm using a microplate reader Clariostar (BMG labtech, Ortenberg, Germany).
The effect of FAUC1036 on receptor internalization was investigated by scanning laser confocal microscopy and ELISA-based assay. […] The quantification of receptor internalization upon the treatment with the endogenous agonists and with either β-arrestin 2 biased FAUC1036 or G-protein biased FAUC1104 was performed with ELISA based assay. The HEK293T cells transiently expressing FLAG-CXCR3 were stimulated with compounds and chemokines for one hour, washed, fixed and the amount of FLAG-CXCR3 present on the surface was detected by anti-FLAG antibody.

CXCR3 = target: T4, CXCR3 (Homo sapiens, UniProt P49682); assay: β-arrestin 2 recruitment with concomitant incubation of FAUC1036 and chemokine
T4 construct: expressed in transfected cells; host or cells: HEK293 / HEK293T cells, stably transfected; membrane preparations
T4 sequence (P49682 1-368): T1 sequence (P49682 1-368)
Procedure: as §1
The effect of the β-arrestin 2 biased allosteric agonist FAUC1036 on the CXCL11 and CXCL10-induced β-arrestin 2 recruitment was estimated in a series of experiments where the HEK293T cells expressing CXCR3 were concomitantly incubated with FAUC1036 and chemokines CXCL11 or CXCL10 (Figure 3). […] These observations imply that FAUC1036 behaves as a functional negative allosteric modulator (NAM) in the presence of endogenous agonists in the β-arrestin 2 pathway.

| CXCR3-PK1 efficacy (%) (CXCR3-PK1; % of CXCL11 mediated effect, CXCR3-PK1, listed as 11/FAUC103 6) | Emax (CXCR3-PK1; % of CXCL11 mediated effect, CXCR3-PK1, read-out: CXCR3-PK1 efficacy (%) (converted)) | CXCR3-PK1 pEC50 ± SEM (CXCR3-PK1; CXCR3-PK1, listed as 11/FAUC103 6) | CXCR3-PK1 pEC50 ± SEM (CXCR3-PK1; CXCR3-PK1, listed as FAUC1036) | CXCR3-PK2 efficacy (%) (CXCR3-PK2; % of CXCL11 mediated effect, listed as 11/FAUC103 6) | Emax (CXCR3-PK2; % of CXCL11 mediated effect, read-out: CXCR3-PK2 efficacy (%) (converted)) | CXCR3-PK2 pEC50 ± SEM (CXCR3-PK2; listed as 11/FAUC103 6) | CXCR3-PK2 pEC50 ± SEM (CXCR3-PK2; listed as FAUC1036) | influence on the efficacy of CXCL10-induced β-arrestin 2 recruitment (CXCR3; in the presence of CXCL10 (Figure 3B)) | influence on the efficacy of CXCL11-induced β-arrestin 2 recruitment (CXCR3; in the presence of CXCL11 (Figure 3A)) | Structure (SMILES) | β-arrestin 2 recruitment, intrinsic agonism (result in words) (CXCR3-PK1) | receptor internalization (ELISA quantification) (FLAG-CXCR3) | CXCR3-PK1 pEC50 ± SEM (CXCR3-PK1; CXCR3-PK1) |
| --- | --- | --- | --- | --- | --- | --- | --- | --- | --- | --- | --- | --- | --- |
| 30±5 | 30 | 6.64±0.38 | 6.64 ± 0.38 | 66±8 | 66 | 6.58±0.30 | 6.64 ± 0.30 | noticeable effect on the efficacy | had not influence on the efficacy | CC(C)(C)OC(=O)N[C@@H](CCCCNC(=O)[C@@H]1Cc2ccccc2CN1C(=O)CCC(=O)c1ccccc1)C(=O)NCC(c1ccccc1)c1ccccc1 [Compound 11, Tert-butyl ((S)-1-((2,2-diphenylethyl)amino)-1-oxo-6-((S)-2-(4-oxo-4-phenylbutanoyl)-1,2,3,4-tertahydroisoquinoline-3-carboxamido)hexan-2-yl)carbamate] | activates the β2-arrestin recruitment | induced receptor internalization |  |
|  |  |  |  |  |  |  |  |  |  | COc1ccc(C(=O)CCC(=O)N2Cc3ccccc3C[C@H]2C(=O)NCCCC[C@H](NC(=O)OC(C)(C)C)C(=O)NCC(c2ccccc2)c2ccccc2)cc1 [Compound 14, Tert-butyl ((S)-1-((2,2-diphenylethyl)amino)-6-((S)-2-(4-(4-methoxyphenyl)-4-oxobutanoyl)-1,2,3,4-tetrahydroisoquinoline-3-carboxamido)-1-oxohexan-2-yl)carbomate] | complete loss of intrinsic agonistic properties | does not induce receptor internalization | No effect |

— EP3156398A1, “AGONISTS OF THE CHEMOKINE RECEPTOR CXCR3” (Friedrich-Alexander-Universität Erlangen-Nürnberg, priority 2015, dated 2017)
